Laboratory results taken from patent publication US20230183640A1, “METABOLIC INHIBITORS WITH EFFICACY FOR INHIBITING SULFIDE PRODUCTION IN HARSH ENVIRONMENTS” (MC (US) 3 LLC, priority 2020, published 2023).

How the values were obtained:
Format in all cases: cell-based
[1] = system: Desulfovibrio gabonensis 700201; assay: H2S and Log (Growth) efficacy against SRB, 96-Well Plate Method
Experimental: (§1) A lyophilized Desulfovibrio alaskensis 14563, Desulfovibrio longus 51456, and Desulfovibrio gabonensis 700201 pure cultures received from ATCC were resuspended individually in 500 ul of MB 1250. Aseptically, the content was transferred to a 5-mL tube of MB1250 medium. The cultures were incubated in an anaerobic chamber at 30° C. for 72 hrs. Subsequently, an individual stock culture with a final concentration of 25% glycerol were prepared by adding equal volumes of culture and 50% glycerol. 1 ml of the cultures were then transferred to 2-ml cryogenic vials and stored at −80° C. The purity of the stock cultures was evaluated through PCR, by amplifying the 16S rDNA region, and thus, it was verified that the original ATCC sample was a pure culture. 48-hour cultures of ATCC Desulfovibrio alaskensis 14563, Desulfovibrio longus 51456, and Desulfovibrio gabonensis 700201 were prepared in an anaerobic chamber. Each culture was prepared as a 1:10 culture by taking 1 milliliter (mL) of a pure culture and inoculating 9 milliliters (mL) of fresh MB1250 media. The Desulfovibrio alaskensis 14563 and Desulfovibrio gabonensis 700201 were all grown at 30° C. and the Desulfovibrio longus 51456 culture was grown at 35° C.
(§2) After the 48-hour incubation, 600 microliters (μL) were taken from each culture and optical density (OD) was measured using a Thermofisher Spectronic 200 Spectrophotometer at 600 nm. Each culture was diluted to 0.05 OD600 in fresh MB1250 media and added to the 96 well plates. Edge wells were not used due to their inherent variability and evaporation of the media. Each of the components were added at their respective concentrations for a final volume of 500 μL per well. In Table 3, 6 and 7, the concentrations of the compound used for the experiments are listed. Each experiment was done with at least three replicates for different treatments and non-treatment controls. From these test plates, 200 μL were taken and placed into two separate plates for 3 and 6 days. Plates were then sealed with a titer-top and placed into anaerobic boxes and incubated in an anaerobic incubator at 30° C.
(§3) At each time point, sulfide samples were taken, and enumeration plates were made. Enumeration plates were made to determine the log growth in each dosed sample. For this process, enumeration plates were prepared by adding 180 μL fresh media MB1250 containing 0.01 wt % ferrous ammonium sulfate. 20 μL was taken from each well of the challenge plates and transferred to the enumeration plates using a 20-200 μL multichannel pipette. Enumeration plates were mixed three times using the multichannel pipette and serial diluted down the plate tenfold (20 μL into 180 μL). This serial dilution process was repeated for all challenge plate rows giving a total of 6 enumeration plates.
(§4) After 7 days these enumeration plates were read. The ferrous ammonium sulfate in each plate would be converted to iron sulfide, changing wells with SRB growth from clear to black. By counting the number of black wells in a row, the log growth from the original well in the challenge plate can be determined.
(§5) To determine hydrogen sulfide production in each sample, sulfide samples were also taken from each challenge plate. From each well, 9 μL were taken and added to 60 μL of 2% zinc acetate with 0.02% acetic acid. Then, 180 μL of milliQ water was added. 60 μL of stock solution 1 containing 64% sulfuric acid, <1% Dimethyl-4-phenylenediamine (DMPD), water to 100% was added to each well on the plates. This was followed by 3 μL of stock solution 3 containing 50% Iron (III) chloride. All chemicals are ordered from Fisher Scientific and used as received. These were mixed three times and read after 15 minutes. The plates were read at 670 nm using a Biotek microplate reader. Absorbance readings were converted to mM using a standard curve and this was converted to parts per million using the molar mass of sulfur. […]

[2] = system: Desulfovibrio longus 51456; assay: as above
Experimental: as §1, §2, §3, §4, §5

[3] = system: sulfate reducing bacteria; assay: Efficacy in inhibiting H2S production from sulfate reducing bacteria; details: anaerobic conditions
Experimental: To understand the hydrogen sulfide inhibition efficacy of the N-hydroxycarboxamide compounds of the present invention, several compounds were tested. Some compounds that can be used in this H2S inhibiting composition are disclosed in Table 2. For the testing procedures, the compounds were dissolved in DMSO, resulting in a stock solution of about 8000-100000 ppm, which was subsequently diluted in 96-well plates or 10 mL serum vials containing media and selected culture to give varying concentrations from 0.09 to 1000 ppm of the compounds in final solution for efficacy testing.
Strains of commonly found bacteria were used for testing the efficacy of the compounds, viz. Desulfovibrio alaskensis, Desulfovibrio longus and Desulfovibrio gabonensis. Media for the cultures was also prepared by using a standard method. The cultures were aseptically used and incubated under anaerobic conditions. Two well established methods were used for testing various compounds:
The compounds C1, C12, C14, C15 and C16 were tested individually to understand each of their efficacies in inhibiting the H2S production from sulfate reducing bacteria, under standard temperature and pressure conditions. The efficacy of compounds C14 and C15 against hydrogen sulfide production are disclosed in Example 1, Tables 6 and 7.

[4] = system: various microorganism strains; assay: Comparative testing of C1 in aerobic and anaerobic conditions; details: Examples 2 and 3
Text: Therefore, to further analyze the efficacy of compound C1, comparative testing was done in both aerobic and anaerobic conditions using additional bacteria cultures. For aerobic conditions testing, the following strains were used: Escherichia coli, Pseudomonas aeruginosa, Enterobacter aerogenes, and Klebsiella pneumoniae. For anaerobic testing, the following strains were used: Klebsiella pneumoniae, Enterobacter aerogenes, Escherichia coli, and Enterococcus faecalis.

**Q.** Which results are given for `O=C(CN1C(=O)c2cccc3cccc(c23)C1=O)NO` [C1]?
**A.** H2S ([1]; 3 days, 6.4 PPM): 12.4 PPM; Log (Growth) ([1]; 3 days, 6.4 PPM): 0.0; H2S ([1]; 3 days, 12.8 PPM): 12.1 PPM; Log (Growth) ([1]; 3 days, 12.8 PPM): 0.0; H2S ([1]; 3 days, 25.6 PPM): 11.1 PPM; Log (Growth) ([1]; 3 days, 25.6 PPM): 0.0; H2S ([1]; 3 days, 51.3 PPM): 12.3 PPM; Log (Growth) ([1]; 3 days, 51.3 PPM): 0.0; H2S ([1]; 3 days, 102.5 PPM): 10.5 PPM; Log (Growth) ([1]; 3 days, 102.5 PPM): 0.0; H2S ([1]; 3 days, 205.0 PPM): 10.0 PPM; Log (Growth) ([1]; 3 days, 205.0 PPM): 0.0; H2S ([1]; 6 days, 6.4 PPM): 18.1 PPM; Log (Growth) ([1]; 6 days, 6.4 PPM): 0.0; H2S ([1]; 6 days, 12.8 PPM): 10.4 PPM; Log (Growth) ([1]; 6 days, 12.8 PPM): 0.0; H2S ([1]; 6 days, 25.6 PPM): 9.4 PPM; Log (Growth) ([1]; 6 days, 25.6 PPM): 0.0; H2S ([1]; 6 days, 51.3 PPM): 8.4 PPM; Log (Growth) ([1]; 6 days, 51.3 PPM): 0.0; H2S ([1]; 6 days, 102.5 PPM): 8.6 PPM; Log (Growth) ([1]; 6 days, 102.5 PPM): 0.0; H2S ([1]; 6 days, 205.0 PPM): 8.5 PPM; Log (Growth) ([1]; 6 days, 205.0 PPM): 0.0; H2S ([2]; 3 days, 6.4 PPM): 9.8 PPM; Log (Growth) ([2]; 3 days, 6.4 PPM): 0.0; H2S ([2]; 3 days, 12.8 PPM): 9.3 PPM; Log (Growth) ([2]; 3 days, 12.8 PPM): 0.0; H2S ([2]; 3 days, 25.6 PPM): 9.1 PPM; Log (Growth) ([2]; 3 days, 25.6 PPM): 0.0; H2S ([2]; 3 days, 51.3 PPM): 8.8 PPM; Log (Growth) ([2]; 3 days, 51.3 PPM): 0.0; H2S ([2]; 3 days, 102.5 PPM): 8.6 PPM; Log (Growth) ([2]; 3 days, 102.5 PPM): 0.0; H2S ([2]; 3 days, 205.0 PPM): 8.7 PPM; Log (Growth) ([2]; 3 days, 205.0 PPM): 0.0; H2S ([2]; 6 days, 6.4 PPM): 8.1 PPM; Log (Growth) ([2]; 6 days, 6.4 PPM): 0.0; H2S ([2]; 6 days, 12.8 PPM): 7.9 PPM; Log (Growth) ([2]; 6 days, 12.8 PPM): 0.0; H2S ([2]; 6 days, 25.6 PPM): 7.3 PPM; Log (Growth) ([2]; 6 days, 25.6 PPM): 0.0; H2S ([2]; 6 days, 51.3 PPM): 7.2 PPM; Log (Growth) ([2]; 6 days, 51.3 PPM): 0.0; H2S ([2]; 6 days, 102.5 PPM): 7.5 PPM; Log (Growth) ([2]; 6 days, 102.5 PPM): 0.0; H2S ([2]; 6 days, 205.0 PPM): 8.1 PPM; Log (Growth) ([2]; 6 days, 205.0 PPM): 0.0; efficacy for inhibiting hydrogen sulfide production [3]: highest efficacy; inhibition under anaerobic as opposed to aerobic conditions [4]: preferentially inhibited hydrogen sulfide production under anaerobic conditions; killing of the various microorganism strains [4]: completely killing
